# From patent EP4799620A1, “ORAL PHARMACEUTICAL FORM FOR BIPHASIC RELEASE, COMPOSED OF A MULTIP[…], PROCESS FOR PREPARING SAME AND […] USE OF ORAL FORM” (Prati, Donaduzzi & Cia LTDA, priority 2023, dated 2025)
# Read-outs that look alike come from different tables or passages of the source.
# Columns and labels:
# [1] = in water; cited from earlier work
# [2] = test system: patients with secondary insomnia; assay: Randomized, controlled, cross-over clinical trial: actigraphy analysis; format: in vivo
# Procedure: (§1) Based on the foregoing, a double-blind clinical trial was conducted to evaluate the impact of the medication on sleep quality and total sleep time, as well as to quantify the reduction in sleep latency in patients diagnosed with comorbid insomnia, through actigraphy and assessment scales.
# (§2) The objective of the clinical trial was to evaluate the impact of the medication on sleep quality and total sleep time, as well as to quantify the reduction in sleep latency in patients diagnosed with comorbid insomnia, through actigraphy and assessment scales. The study was conducted with 30 patients.
# Of the 29 patients, 24 correctly completed the proposed actigraphy usage period. TABLE 2: ACTIGRAPHY ANALYSIS RESULTS.
# [3] = cited from earlier work
# [4] = test system: patients with Alzheimer's disease; details: 50 mg/day; cited from earlier work
# [5] = test system: patients with secondary insomnia; assay: Randomized, controlled, cross-over clinical trial: questionnaires and subjective sleep perception; format: in vivo; details: for Sleep latency / Total sleep time: subjective
# Procedure: as §1, §2
# TABLE 1: RESULTS OF THE ANALYSIS OF THE QUESTIONNAIRES AND OF THE SUBJECTIVE SLEEP PERCEPTION.
# [6] = 50 mg/day; double-blind controlled study; cited from earlier work
# healthy volunteers = details: daily doses of 50 and 100 mg; cited from earlier work
# postmenopausal women = details: trazodone 50-100 mg/day; cited from earlier work
# pregnant women = details: 50 mg/day; 67 pregnant women; third trimester of pregnancy; cited from earlier work
compound,measurement,setting,value
O=c1n(CCCN2CCN(c3cccc(Cl)c3)CC2)nc2ccccn12 [Trazodone],pKa,[1],6.74
same,Awakenings,"[2]; 50mg, Actigraphy 1",12.97±3.85@
same,Sleep latency,"[2]; 50mg, Actigraphy 1",6.13 ± 5.56 min
same,Total sleep time,"[2]; 50mg, Actigraphy 1",50mg 461.80±106.60 min.
same,WASO,"[2]; 50mg, Actigraphy 1",84.20 ± 26.09 min
same,Awakenings,"[2]; 50mg, Actigraphy 2",10.68±3.44
same,Sleep latency,"[2]; 50mg, Actigraphy 2",7.16 ± 7.48 min
same,Total sleep time,"[2]; 50mg, Actigraphy 2",479.90 ± 95.25 min
same,WASO,"[2]; 50mg, Actigraphy 2",75.38 ± 29.34 min
same,Awakenings,"[2]; 50mg, Actigraphy 3",11.35±3.59@
same,Sleep latency,"[2]; 50mg, Actigraphy 3",4.40 ± 4.40 min
same,Total sleep time,"[2]; 50mg, Actigraphy 3",476.00 ± 91.94 min
same,WASO,"[2]; 50mg, Actigraphy 3",73 ± 26.45 min
same,Awakenings,"[2]; 75mg, Actigraphy 1",12.64±2.57
same,Sleep latency,"[2]; 75mg, Actigraphy 1",6.77 ± 5.96 min
same,Total sleep time,"[2]; 75mg, Actigraphy 1",75 mg 486.00±151.70 min.
same,WASO,"[2]; 75mg, Actigraphy 1",82.33 ± 20.21 min
same,Awakenings,"[2]; 75mg, Actigraphy 2",11.37±1.56
same,Sleep latency,"[2]; 75mg, Actigraphy 2",5.28 ± 4.71 min
same,Total sleep time,"[2]; 75mg, Actigraphy 2",514.10 ± 166.50 min
same,WASO,"[2]; 75mg, Actigraphy 2",88.29 ± 20.62 min
same,Awakenings,"[2]; 75mg, Actigraphy 3",11.71±2.54£2
same,Sleep latency,"[2]; 75mg, Actigraphy 3",7.33 ± 7.90 min
same,Total sleep time,"[2]; 75mg, Actigraphy 3",498.60 ± 126.30 min
same,WASO,"[2]; 75mg, Actigraphy 3",83.44 ± 32.30 min
same,Awakenings,"[2]; no dose stated, Actigraphy 1",12.84±3.37@
same,Sleep latency,"[2]; no dose stated, Actigraphy 1",6.37 ± 5.60 min
same,Total sleep time,"[2]; no dose stated, Actigraphy 1",470.90 ± 122.70 min
same,WASO,"[2]; no dose stated, Actigraphy 1",84.20 ± 26.09 min
same,Awakenings,"[2]; no dose stated, Actigraphy 2",10.92±2.89
same,Sleep latency,"[2]; no dose stated, Actigraphy 2",6.47 ± 6.51 min
same,Total sleep time,"[2]; no dose stated, Actigraphy 2",491.90 ± 121.50 min
same,Awakenings,"[2]; no dose stated, Actigraphy 3",11.49±3.186@#
same,Sleep latency,"[2]; no dose stated, Actigraphy 3",5.50 ± 5.97 min
same,Total sleep time,"[2]; no dose stated, Actigraphy 3",484.50 ± 104.00 min
same,WASO,"[2]; no dose stated, Actigraphy 3",73.00 ± 26.45 min
same,solubility,"[3]; above its pKa, neutral and basic conditions",very low
same,solubility,"[3]; acidic medium, pH of the medium below its pKa",highly soluble
same,treatment of insomnia,[4],safe and effective
same,Hamilton Depression Scale,"[5]; 50 mg, Consultation 1",16.31±8.60@#
same,Insomnia Severity Scale,"[5]; 50 mg, Consultation 1",19.88±4.04@#
same,Nights with awakenings/week,"[5]; 50 mg, Consultation 1",3.00±0.00@
same,Pittsburgh Sleep Quality Questionnaire,"[5]; 50 mg, Consultation 1",14.13±3.11@#
same,Hamilton Depression Scale,"[5]; 50 mg, Consultation 2",11.88±6.06@
same,Insomnia Severity Scale,"[5]; 50 mg, Consultation 2",17.69±6.18&*
same,Nights with awakenings/week,"[5]; 50 mg, Consultation 2",2.40±1.05
same,Pittsburgh Sleep Quality Questionnaire,"[5]; 50 mg, Consultation 2",11.19±2.90
same,Hamilton Depression Scale,"[5]; 50 mg, Consultation 3",11.13±6.98
same,Insomnia Severity Scale,"[5]; 50 mg, Consultation 3",11.14±7.24#&
same,Nights with awakenings/week,"[5]; 50 mg, Consultation 3",2.00±1.17
same,Hamilton Depression Scale,"[5]; 50 mg, Consultation 4","7,875±4.28"
same,Insomnia Severity Scale,"[5]; 50 mg, Consultation 4",7.50±4.48@#
same,Nights with awakenings/week,"[5]; 50 mg, Consultation 4",1.06±1.39@#
same,Pittsburgh Sleep Quality Questionnaire,"[5]; 50 mg, Consultation 4",9.81±3.50@
same,Hamilton Depression Scale,"[5]; 75 mg, Consultation 1",18.31±11.41@
same,Insomnia Severity Scale,"[5]; 75 mg, Consultation 1",21.08±3.84@
same,Nights with awakenings/week,"[5]; 75 mg, Consultation 1",2.84±0.55
same,Pittsburgh Sleep Quality Questionnaire,"[5]; 75 mg, Consultation 1",13.54±3.43@
same,Hamilton Depression Scale,"[5]; 75 mg, Consultation 2",14.85±6.65
same,Insomnia Severity Scale,"[5]; 75 mg, Consultation 2",19.75±3.84
same,Nights with awakenings/week,"[5]; 75 mg, Consultation 2",3.00±0.00
same,Pittsburgh Sleep Quality Questionnaire,"[5]; 75 mg, Consultation 2",12.77±2.20
same,Hamilton Depression Scale,"[5]; 75 mg, Consultation 3",12.5±6.81
same,Insomnia Severity Scale,"[5]; 75 mg, Consultation 3",16.69±8.34
same,Nights with awakenings/week,"[5]; 75 mg, Consultation 3",2.58±0.90
same,Pittsburgh Sleep Quality Questionnaire,"[5]; 75 mg, Consultation 3",13.58±3.08
same,Hamilton Depression Scale,"[5]; 75 mg, Consultation 4",8.08±3.57@#
same,Insomnia Severity Scale,"[5]; 75 mg, Consultation 4","7,33±5,61@#"
same,Nights with awakenings/week,"[5]; 75 mg, Consultation 4",1.38±1.55
same,Pittsburgh Sleep Quality Questionnaire,"[5]; 75 mg, Consultation 4",9.91±3.26@#
same,Hamilton Depression Scale,"[5]; no dose stated, Consultation 1","17,21±9,82@#"
same,Insomnia Severity Scale,"[5]; no dose stated, Consultation 1",20.41±3.93@#
same,Nights with awakenings/week,"[5]; no dose stated, Consultation 1",2.93±0.37@
same,Pittsburgh Sleep Quality Questionnaire,"[5]; no dose stated, Consultation 1",13.86±3.21@
same,Hamilton Depression Scale,"[5]; no dose stated, Consultation 2",13.21±6.40&*
same,Insomnia Severity Scale,"[5]; no dose stated, Consultation 2",18.57±5.32&*
same,Nights with awakenings/week,"[5]; no dose stated, Consultation 2",2.67±0.82
same,Pittsburgh Sleep Quality Questionnaire,"[5]; no dose stated, Consultation 2",11.9±2.69
same,Hamilton Depression Scale,"[5]; no dose stated, Consultation 3","11,74±6,80#&"
same,Insomnia Severity Scale,"[5]; no dose stated, Consultation 3",13.81±8.14#&
same,Nights with awakenings/week,"[5]; no dose stated, Consultation 3",2.26±1.08
same,Pittsburgh Sleep Quality Questionnaire,"[5]; no dose stated, Consultation 3",12.59±3.68
same,Hamilton Depression Scale,"[5]; no dose stated, Consultation 4",7.96±3.93@*
same,Insomnia Severity Scale,"[5]; no dose stated, Consultation 4",7.42±4.90@#
same,Nights with awakenings/week,"[5]; no dose stated, Consultation 4",1.20±1.45@#
same,Pittsburgh Sleep Quality Questionnaire,"[5]; no dose stated, Consultation 4",9.85±3.34@#
same,Sleep latency,"[5]; 50mg, Consultation 1",50.5 ± 40.46 min
same,Total sleep time,"[5]; 50mg, Consultation 1",273.80 ± 95.42 min
same,Sleep latency,"[5]; 50mg, Consultation 2",37.19 ± 20.00 min
same,Total sleep time,"[5]; 50mg, Consultation 2",307.50 ± 75.50 min
same,Sleep latency,"[5]; 50mg, Consultation 3","42,56±47,20 min."
same,Total sleep time,"[5]; 50mg, Consultation 3",348.80 ± 103.30 min
same,Sleep latency,"[5]; 50mg, Consultation 4",26.31 ± 25.20 min
same,Sleep latency,"[5]; 75mg, Consultation 1",93.08 ± 99.11 min
same,Total sleep time,"[5]; 75mg, Consultation 1",281.50 ± 128.20 min
same,Sleep latency,"[5]; 75mg, Consultation 2",69.69 ± 43.86 min
same,Total sleep time,"[5]; 75mg, Consultation 2",272.30 ± 87.00 min
same,Sleep latency,"[5]; 75mg, Consultation 3",63.08 ± 53.17 min
same,Total sleep time,"[5]; 75mg, Consultation 3",290.80 ± 72.85 min
same,Sleep latency,"[5]; 75mg, Consultation 4",33.85 ± 25.67 min
same,Total sleep time,"[5]; 75mg, Consultation 4",378.50 ± 89.61 min
same,Sleep latency,"[5]; no dose stated, Consultation 1","69,59±74,51@ min."
same,Total sleep time,"[5]; no dose stated, Consultation 1",277.20±109.20@ min.
same,Sleep latency,"[5]; no dose stated, Consultation 2",51.76 ± 36.18 min
same,Total sleep time,"[5]; no dose stated, Consultation 2",291.70 ± 81.33 min
same,Sleep latency,"[5]; no dose stated, Consultation 3",51.76 ± 50.13 min
same,Total sleep time,"[5]; no dose stated, Consultation 3",322.80 ± 94.07 min
same,Sleep latency,"[5]; no dose stated, Consultation 4","29,69±25,24@# min."
same,Total sleep time,"[5]; no dose stated, Consultation 4",341.80±110.00@ min.
same,maintaining sleep,[6],effective
same,slow waves during sleep,healthy volunteers,increased
same,sleep quality and sexual dysfunction,postmenopausal women,improved
same,Sedative effects for the treatment of insomnia,pregnant women,efficacy
CN1CCN(C(=O)OC2c3nccnc3C(=O)N2c2ccc(Cl)cn2)CC1 (stereo not drawn) [zopiclone],sleep quality and sexual dysfunction,postmenopausal women,improved
